Assay results from article PMC10144994, “Bioactive Metabolite from Endophytic Aspergillus versicolor SB5 with Anti-Acetylcholinesterase, Anti-Inflammatory and Antioxidant Activities: In Vitro and In Silico Studies” (Microorganisms, 2023).

Biological target: T1, LOX-1 (lipoxygenase from Glycine max, type I-B) (Glycine max, UniProt P08170)
T1 construct: gene LOX1.1
T1 sequence (P08170 1-839): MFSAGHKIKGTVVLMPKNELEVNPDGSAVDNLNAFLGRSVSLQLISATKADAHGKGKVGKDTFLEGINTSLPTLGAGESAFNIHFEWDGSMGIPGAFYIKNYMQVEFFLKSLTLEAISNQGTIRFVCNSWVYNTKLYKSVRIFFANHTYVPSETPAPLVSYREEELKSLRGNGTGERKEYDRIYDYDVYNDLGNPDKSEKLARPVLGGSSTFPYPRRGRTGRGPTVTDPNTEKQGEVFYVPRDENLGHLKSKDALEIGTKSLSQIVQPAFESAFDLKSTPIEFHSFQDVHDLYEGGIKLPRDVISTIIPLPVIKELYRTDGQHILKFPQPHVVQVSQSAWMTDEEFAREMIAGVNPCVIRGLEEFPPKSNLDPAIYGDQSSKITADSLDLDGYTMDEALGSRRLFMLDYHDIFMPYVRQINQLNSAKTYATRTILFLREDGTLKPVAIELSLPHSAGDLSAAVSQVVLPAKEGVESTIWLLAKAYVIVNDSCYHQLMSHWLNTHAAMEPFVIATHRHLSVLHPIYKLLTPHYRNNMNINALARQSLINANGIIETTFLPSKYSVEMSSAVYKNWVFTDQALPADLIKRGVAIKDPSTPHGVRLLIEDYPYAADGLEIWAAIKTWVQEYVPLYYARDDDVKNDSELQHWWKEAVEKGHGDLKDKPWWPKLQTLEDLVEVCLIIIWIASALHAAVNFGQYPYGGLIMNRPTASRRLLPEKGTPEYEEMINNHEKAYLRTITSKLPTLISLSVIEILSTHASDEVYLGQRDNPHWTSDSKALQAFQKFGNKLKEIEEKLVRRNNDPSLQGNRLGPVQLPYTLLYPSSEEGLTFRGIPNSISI
Experiment: soybean LOX, linoleic acid substrate, absorbance at […] nm
Assay type: biochemical

COc1cc(O)c2c(c1)C(=O)c1cc(C)cc(O)c1C2=O [C1, 1,8-dihydroxy-3-methoxy-6-methylanthracene-9,10-dione] showed an IC50 of 61.7 µM.
